Data reported in patent US20220096421A1, “Active Ingredient, Pharmaceutical Composition, and Medicinal Product for HIV and AIDS Therapy” (priority 2019, published 2022).
Entries after “also recorded” stand apart in the source; their conditions may differ. Read-outs that look alike come from different tables or passages of the source.

How the values were obtained:
HIV-1 = experiment: Efficacy, safety and optimal dosage study in previously untreated HIV-1-infected patients versus Efavirenz; conditions: for development of HIV-1 resistance: patients, at the studied doses; for viral load decrease: week 12; for viral load decrease / viral load change: 20 mg MMSCs of formula Ib, 600 mg Efavirenz; for viral load change: week 24
Method: Doses of 20 mg/day (60 patients) and 40 mg/day (60 patients) of MMSCs of formula Ib were studied versus 600 mg/day of Efavirenz (30 patients).
Doses of 20.7 mg/day (60 patients) and 41.4 mg/day (60 patients) of MMSCs of formula Ib were studied in comparison with Efavirenz (600 mg/day, 30 patients).

[1] = Pharmacokinetics in healthy volunteers with repeated weekly administration; format: in vivo, human; conditions: for Cmax / concentration at 168 h: human, in vivo, oral; for Cmax: read-out: Cmax of active metabolite Ia in the first week; for concentration at 168 h: read-out: concentration of active metabolite Ia a week later (168 hours)
[2] = Clinical trial in healthy volunteers, pharmacokinetics with daily administration of capsules; conditions: constant administration, average
Method: The concentration-time pattern of metabolite Ia in the blood was evaluated by its content in the plasma and blood cells.

Row | Compound | development of HIV-1 resistance (HIV-1) | viral load decrease (HIV-1) | viral load change (HIV-1) | time to maximum concentration of active metabolite Ia in the first week ([1]; 41.4, 82.8 or 124.2 mg/week, after taking the drug) | Cmax ([1]; 41.4 mg/week) | concentration at 168 h ([1]; 41.4 mg/week) | Cmax ([1]; 82.8 mg/week) | concentration at 168 h ([1]; 82.8 mg/week) | Cmax ([1]; 124.2 mg/week) | concentration at 168 h ([1]; 124.2 mg/week) | time of dosing to maximum plasma concentration of active metabolite Ia ([2]; 10 mg/day) | time of dosing to maximum plasma concentration of active metabolite Ia ([2]; 20 mg/day) | time of dosing to maximum plasma concentration of active metabolite Ia ([2]; 30 mg/day) | occurrence of a viral load reduction of 10 times and more (HIV-1; 20 mg versus Efavirenz 600 mg, p=0.053) | efficacy difference between the MMSCs of formula Ib therapy groups (HIV-1; 20 versus 40 mg/day groups, p=0.804) | serious adverse events (HIV-1; HIV-1-infected patients) | effectiveness in reducing the viral load to <400 copies/ml (HIV-1; doses of 20 and 40 mg, over a period of 12 weeks, versus Efavirenz 600 mg/day) | advantage of the 20 mg group over the Efavirenz 600 mg group (HIV-1; p=0.0237) | frequency of achieving an undetectable HIV-1 RNA level (HIV-1; week 36, versus Efavirenz, p=0.408)
1 | O=C1Nc2ccc(Cl)cc2[C@@](C#CC2CC2)(C(F)(F)F)O1 [Efavirenz, reference compound] | No development of HIV-1 resistance was established; also recorded: has not been established | −2.7±1.0 | −3.3±0.8 |  |  |  |  |  |  |  |  |  |  |  |  |  |  |  | 
2 | N#Cc1cc(Cl)cc(Oc2c(Br)ccc(CC(=O)Nc3ccc(S(N)(=O)=O)cc3Cl)c2F)c1 [Ia] |  |  |  | approximately 5.5 hours | 34.5 ng/mL | 26.1 ng/mL | 63.6 ng/mL | 36.9 ng/mL | 117 ng/mL | 57.2 ng/mL | 9.8 days | 7.5 days | 6.7 days |  |  |  |  |  | 
3 | CCC(=O)[N-]S(=O)(=O)c1ccc(NC(=O)Cc2ccc(Br)c(Oc3cc(Cl)cc(C#N)c3)c2F)c(Cl)c1.[Na+] [MMSCs of formula Ib, sodium {[4-({[4-bromo-3-(3-chloro-5-cyanophenoxy)-2-fluorophenyl]acetyl}amino)-3-chlorophenyl]-sulfonyl}(propanoyl)azanide] | No development of HIV-1 resistance was established; also recorded: has not been established | −2.8±0.7 | −3.3±0.7 |  |  |  |  |  |  |  |  |  |  | tendency for a statistical difference | did not differ in effectiveness; also recorded: did not differ in efficacy | No serious adverse events were observed | not inferior to Efavirenz | statistically significant | did not statistically differ; also recorded: did not differ statistically
